Data reported in patent US20140249122A1, “ANTI-DIABETIC AMINOSTEROID DERIVATIVES” (UNIVERSITE NICE SOPHIA ANTIPOLIS, priority 2011, published 2014).
Entries after “also recorded” stand apart in the source; their conditions may differ.

How the values were obtained:
[1] = tested on: GLUT4; assay: GLUT4 at the surface of 3T3-L1 adipocytes, with or without insulin; type: cell-based; details: for effect on the effectiveness of insulin on GLUT4 translocation: 3T3-L1 adipocytes, 20 minutes, aminosteroid 50 μM, insulin 1 nM present or absent
Text: One of the key components in the insulin-induced uptake of sugar by myocytes and adipocytes is the GLUT4 glucose (sugar) transporter. When insulin binds to its receptor at the surface of these cells, or during a muscle contraction, intracellular signalling pathways are activated, resulting in the translocation of GLUT4 from its intracellular storage compartment to the plasma membrane, where it enables sugar to enter from the extracellular medium. GLUT4 therefore plays an important role in carbohydrate homeostasis and, consequently, in T2D. 3T3-L1 adipocytes are stimulated for 20 minutes with the aminosteroids (50 μM), in the presence or absence of insulin (1 nM), and are labelled for GLUT4 at the surface of the cells. The percentage of GLUT4 at the surface of the cells is then determined.

[2] = tested on: 3T3-L1 adipocytes; assay: Glucose uptake in 3T3-L1 adipocytes; type: cell-based; details: various insulin concentrations, with or without ST10
[3] = tested on: GLUT4; assay: Sensitivity of adipocytes to insulin (GLUT4 on the plasma membrane); type: cell-based; details: FIG. 3B
Description: The effect of insulin and of ST10 on the amount of GLUT4 on the plasma membrane was measured (FIG. 3A) and the sensitivity of the cells to insulin was calculated (FIG. 3B).

[4] = tested on: GLUT4; assay: GLUT4 on the surface of insulin-resistant adipocytes; type: cell-based; details: adipocytes made insulin resistant by insulin for 24 h, then insulin for 20 min with or without ST10
[5] = parameters: species or system mice; details: mouse, in vivo
Description: Healthy mice were treated in the same way as previously. A dose of insulin was injected into these mice (at t=0). The blood glucose level of the mice was measured until 120 minutes after the insulin injection. […] The treatment with the ST20 derivative therefore prolongs the effect of insulin.

For `CC(C)CCC[C@@H](C)[C@H]1CC[C@H]2[C@@H]3C[C@@H](NCCCNCCCCNCCCN)[C@H]4C[C@@H](O)CC[C@]4(C)[C@H]3CC[C@]12C` [ST10, 6β-(spermine)cholestan-3β-ol], the “effect on the effectiveness of insulin on GLUT4 translocation” value [1] was “increases the effectiveness of insulin on GLUT4 translocation”, the “increase in GLUT4 at the surface of the plasma membrane (PM), ST10 versus trodusquemine” value ([1]; FIG. 1C) was “greater in the presence of ST10 than in the presence of trodusquemine” and the “glucose uptake in adipocytes” value [2] was “increases glucose uptake in the adipocytes; also recorded: increased by ST10 for all the insulin concentrations tested”. The “sensitivity of the cells to insulin” value [3] was “increases the sensitivity of the cells to insulin” and the “effect of insulin on GLUT4 on the surface of insulin-resistant cells” value [4] was “also increases the effect of the insulin”.
For `CC(C)CCC[C@@H](C)[C@H]1CCC2C3C[C@@H](NCCCCNCCCN)C4=C[C@@H](O)CC[C@]4(C)C3CC[C@@]21C` (stereo partly drawn) [ST20, 6β-(spermidine)cholesten-3β-ol], the “severe hypoglycaemia in the ITT” value [5] was “did not cause severe hypoglycaemia”.
With `CC(C)[C@@H](CC[C@@H](C)[C@H]1CC[C@H]2[C@@H]3[C@H](O)C[C@H]4C[C@@H](NCCCNCCCCNCCCN)CC[C@]4(C)[C@H]3CC[C@]12C)OS(=O)(=O)O` [trodusquemine, reference compound] the “effect on the effectiveness of insulin on GLUT4 translocation” value [1] was “not”.
